From patent US7285703B2, “Plant like starches and the method of making them in hosts” (BASF Plant Science GmbH, priority 1998, dated 2007)

Columns and labels:
[1] = molecular target: T1, maize starch synthase SSI-3 (STSI-3), N-terminally truncated SSI, first 93 amino acids of SSI-1 deleted, N-terminus SIVFVTGE (SEQ ID NO:66) (Zea mays, UniProt O49064); test: ADPGlc kinetics of starch synthase SSI-3; assay type: biochemical; settings: 5 mg/ml amylopectin as primer, 37° C.
T1 sequence (O49064 with tags, fused parts or gaps): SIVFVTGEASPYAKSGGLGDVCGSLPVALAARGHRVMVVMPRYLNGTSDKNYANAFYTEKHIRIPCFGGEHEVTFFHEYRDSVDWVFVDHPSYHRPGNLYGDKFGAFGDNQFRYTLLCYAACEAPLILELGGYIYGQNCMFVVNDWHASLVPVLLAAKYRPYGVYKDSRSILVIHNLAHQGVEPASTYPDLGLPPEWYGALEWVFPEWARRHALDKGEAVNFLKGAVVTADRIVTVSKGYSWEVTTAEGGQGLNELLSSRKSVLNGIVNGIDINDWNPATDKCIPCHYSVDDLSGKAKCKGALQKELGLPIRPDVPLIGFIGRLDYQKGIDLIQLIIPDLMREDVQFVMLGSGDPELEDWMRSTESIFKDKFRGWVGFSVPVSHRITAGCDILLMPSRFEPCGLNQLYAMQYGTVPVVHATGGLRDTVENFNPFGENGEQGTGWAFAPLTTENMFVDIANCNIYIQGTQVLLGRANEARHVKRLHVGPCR
From the text: FIG. 58. SSI-1, SSI-2, and SSI-3 construct design. Three forms of SSI were constructed in the pET expression (see Methods). pExs10a encodes SSI-1, the full length maize SSI (583 amino acids) which has the N-terminal sequence CVAELSREGP (SEQ ID NO:64). pExs8 encodes a truncated SSI, SSI-2, with amino acids # 8-52 deleted from the N-terminus of SSI-1 and which has the N-terminal sequence CVAELSR/DLG (SEQ ID NO:65). pExs1d encodes the most truncated form of SSI, SSI-3, with the first 93 amino acids deleted from SSI-1 and which has the N-terminal sequence SIVFVTGE (SEQ ID NO:66). A depiction of the waxygene, encoding GBSS, which has the N-terminal sequence ASAGMNW (SEQ ID NO:67), is also included for comparison. The amino acid motif KS/TGGL (SEQ ID NO:9), the putative binding site for ADGPGlc, in indicated by the triangles. The KS/TGGL (SEQ ID NO:9) motif is located 18 amino acids from the N-terminus in GBSS, while the motif is 106 amino acids from the N-terminus in maize SSI. Drawing not to scale.
5 mL of supernatant were used to assay STS and SBE activities as previously described (Preiss) with minor modification. […] The unincorporated [^14C]-ADPGlc was separated with Dowex anion exchange column (200-400 mesh, Sigma Chemical Co.). […] SBE activity was determined by phosphorylase stimulation assay. One unit of activity is defined as 1 mmol Glc incorporated into the a-glucan per min at. […]

[2] = molecular target: maize starch synthase SSIIa-1, putative full length SSIIa (669 amino acids), N-terminus AEAEAGGK (SEQ ID NO:68) (Zea mays, UniProt A0A804PX87); test: ADPGlc kinetics of starch synthase SSIIa-1; assay type: biochemical; settings: for Vmax (ADPGlc kinetics): amylopectin as primer, 27° C.
Sequence of maize starch synthase SSIIa-1, putative full length SSIIa (669 amino acids), N-terminus AEAEAGGK (SEQ ID NO:68) (A0A804PX87 entry or part of it): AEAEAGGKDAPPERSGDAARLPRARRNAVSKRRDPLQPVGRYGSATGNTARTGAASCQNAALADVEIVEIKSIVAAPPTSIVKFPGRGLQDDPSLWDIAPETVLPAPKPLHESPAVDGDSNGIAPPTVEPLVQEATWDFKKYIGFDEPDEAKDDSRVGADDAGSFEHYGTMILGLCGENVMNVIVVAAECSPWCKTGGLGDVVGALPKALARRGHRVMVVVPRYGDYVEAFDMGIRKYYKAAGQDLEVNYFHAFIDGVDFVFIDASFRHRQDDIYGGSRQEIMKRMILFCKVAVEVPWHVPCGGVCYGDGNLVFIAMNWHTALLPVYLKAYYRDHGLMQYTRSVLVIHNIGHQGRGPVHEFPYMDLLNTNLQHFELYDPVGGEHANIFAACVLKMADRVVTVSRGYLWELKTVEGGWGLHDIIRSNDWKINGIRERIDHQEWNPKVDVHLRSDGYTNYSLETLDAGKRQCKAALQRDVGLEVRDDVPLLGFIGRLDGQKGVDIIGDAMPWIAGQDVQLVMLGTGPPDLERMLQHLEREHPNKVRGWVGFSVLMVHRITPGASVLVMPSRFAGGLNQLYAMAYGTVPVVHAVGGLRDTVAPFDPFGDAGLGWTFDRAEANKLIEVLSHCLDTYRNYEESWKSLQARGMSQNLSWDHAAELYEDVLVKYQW
From the text: FIG. 59. SSIIa-1 and SSIIa-2 construct diagram. Two forms of SSIIa were constructed in the pET expression system. pExs3c encodes SSIIa-1, the putative full length maize SSIIa which has the N-terminal sequence AEAEAGGK (SEQ ID NO:68). […] A depiction of the waxy gene, encoding GBSS which has the N-terminal sequence ASAGMNVV (SEQ ID NO:67), is also included for comparison. The amino acid motif KTGGL (SEQ ID NO:10), the putative binding site for ADPGlc, is indicated by the triangles. The KTGGL (SEQ ID NO:10) motif is located 18 amino acids from the N-terminus in GBSS, while the motif is 194 amino acids from the N-terminus in maize SSIIa.
5 mL of supernatant were used to assay STS and SBE activities as previously described (Preiss) with minor modification. […] […] The unincorporated [^14C]-ADPGlc was separated with Dowex anion exchange column (200-400 mesh, Sigma Chemical Co.). One unit of activity is defined as 1 nmol Glc incorporated into the a-glucan per min at 25° C. SBE activity was determined by phosphorylase stimulation assay. One unit of activity is defined as 1 mmol Glc incorporated into the a-glucan per min at. 30° C.
For the recombinant SS purification, the cell pellet was resuspended in sonication buffer (50 mM Tris-acetate, pH 7.5, 10 mM EDTA, and 5 mMDTT; 7 ml buffer per gram of cell mass), and cells were lysed using a Fisher 550 Sonic Dismembrator with 5×1 min. bursts with 30 sec. intervals. The homogenate was centrifuged at 9600 g for 30 minutes. SSI in the supernatant was then precipitated by slowly adding neutralized saturated ammonium sulfate to 40% saturation. After stirring on ice for an additional 50 minutes, proteins were collected by centrifugation at 12500 g for 45 minutes. The protein pellet was then redissolved in buffer A (50 mM Tris, pH 5.5, 1 mM EDTA, and 5 mM DTT) containing 0.1 M KCl and dialyzed against the same buffer, with one change of buffer. After dialysis, the sample was centrifuged at 13000 g for 20 minutes to remove insoluble materials. […]

## Nc1ncnc2c1ncn2[C@@H]1O[C@H](COP(=O)(O)OP(=O)(O)O[C@H]2O[C@H](CO)[C@@H](O)[C@H](O)[C@H]2O)[C@@H](O)[C@H]1O [ADPGlc, adenosine diphosphate glucose]
[1]; +citrate
  Vm (ADPGlc kinetics): 26.4 ± 1.4 μmol/min/mg protein
[1]; −citrate
  Vm (ADPGlc kinetics): 14.7 ± 1.3 μmol/min/mg protein
[2]; +citrate
  Vmax (ADPGlc kinetics): 23.0 ± 2.5 μmol/min/mg protein
[2]; −citrate
  Vmax (ADPGlc kinetics): 12.1 ± 0.8 μmol/min/mg protein
[2]; from 27° C. to 37° C.
  increase of Km of ADPGlc upon raising the assay temperature: 2 fold
